Laboratory results from ChEMBL document CHEMBL4765362, “Thirty Years of HDAC Inhibitors: 2020 Insight and Hindsight” (J Med Chem, 2020).

Legend:
Histone deacetylase 4 = Histone deacetylase 4 (Homo sapiens, UniProt P56524); test: Inhibition of human HDAC4 expressed in baculovirus infected sf9 cells using carboxyfluorescein (FAM)-labeled acetylated peptide substrate by microfluidic capillary electrophoresis
Histone deacetylase 9 [1] = target: T1, Histone deacetylase 9 (Homo sapiens, UniProt Q9UKV0); test: Inhibition of C-terminal His-tagged human HDAC9 (604 to 1066 residues) expressed in baculovirus infected sf9 cells using carboxyfluorescein (FAM)-labeled acetylated peptide substrate by microfluidic capillary electrophoresis
Histone deacetylase 7 [2] = target: T2, Histone deacetylase 7 (Homo sapiens, UniProt Q8WUI4); test: Inhibition of human N-terminal GST-tagged HDAC7 (518 to end residues) expressed in baculovirus infected sf9 cells using carboxyfluorescein (FAM)-labeled acetylated peptide substrate by microfluidic capillary electrophoresis
T2 sequence (Q8WUI4 whole entry): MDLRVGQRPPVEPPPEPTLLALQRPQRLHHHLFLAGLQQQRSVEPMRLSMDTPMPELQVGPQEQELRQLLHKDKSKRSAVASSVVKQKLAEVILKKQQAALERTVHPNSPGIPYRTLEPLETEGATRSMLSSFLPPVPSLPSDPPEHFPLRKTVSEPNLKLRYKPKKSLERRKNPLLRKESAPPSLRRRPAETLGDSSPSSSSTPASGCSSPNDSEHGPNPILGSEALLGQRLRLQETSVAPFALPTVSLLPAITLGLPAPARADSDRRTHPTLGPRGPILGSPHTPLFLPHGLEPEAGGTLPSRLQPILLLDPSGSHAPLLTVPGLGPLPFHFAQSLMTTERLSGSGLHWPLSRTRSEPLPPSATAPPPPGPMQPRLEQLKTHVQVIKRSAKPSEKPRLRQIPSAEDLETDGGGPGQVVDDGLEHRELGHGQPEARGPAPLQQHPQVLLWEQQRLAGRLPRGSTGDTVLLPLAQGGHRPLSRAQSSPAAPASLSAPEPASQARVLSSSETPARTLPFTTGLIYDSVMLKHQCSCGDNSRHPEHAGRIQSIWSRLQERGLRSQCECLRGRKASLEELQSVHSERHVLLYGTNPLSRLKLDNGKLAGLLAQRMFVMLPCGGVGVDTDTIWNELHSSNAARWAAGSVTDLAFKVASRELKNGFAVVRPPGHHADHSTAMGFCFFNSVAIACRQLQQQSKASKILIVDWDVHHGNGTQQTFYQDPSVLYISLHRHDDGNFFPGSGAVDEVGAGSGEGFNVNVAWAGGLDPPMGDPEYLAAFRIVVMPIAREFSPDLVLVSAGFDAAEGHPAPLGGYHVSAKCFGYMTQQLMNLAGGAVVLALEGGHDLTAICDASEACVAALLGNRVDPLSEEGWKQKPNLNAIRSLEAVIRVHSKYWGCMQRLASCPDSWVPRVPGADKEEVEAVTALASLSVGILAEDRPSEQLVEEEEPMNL

Histone deacetylase 1 = Histone deacetylase 1 (Homo sapiens, UniProt Q13547); test: Inhibition of HDAC1 (unknown origin) using carboxyfluorescein (FAM)-labeled acetylated peptide substrate preincubated for 3 hrs by microfluidic capillary electrophoresis
Histone deacetylase 5 [3] = target: T3, Histone deacetylase 5 (Homo sapiens, UniProt Q9UQL6); test: Inhibition of human HDAC5 using carboxyfluorescein (FAM)-labeled acetylated peptide substrate by microfluidic capillary electrophoresis
Histone deacetylase 8 [4] = target: T4, Histone deacetylase 8 (Homo sapiens, UniProt Q9BY41); test: Inhibition of recombinant human C-terminal His-tagged HDAC8 expressed in baculovirus infected sf9 cells using carboxyfluorescein (FAM)-labeled acetylated peptide substrate by microfluidic capillary electrophoresis
T4 sequence (Q9BY41 whole entry): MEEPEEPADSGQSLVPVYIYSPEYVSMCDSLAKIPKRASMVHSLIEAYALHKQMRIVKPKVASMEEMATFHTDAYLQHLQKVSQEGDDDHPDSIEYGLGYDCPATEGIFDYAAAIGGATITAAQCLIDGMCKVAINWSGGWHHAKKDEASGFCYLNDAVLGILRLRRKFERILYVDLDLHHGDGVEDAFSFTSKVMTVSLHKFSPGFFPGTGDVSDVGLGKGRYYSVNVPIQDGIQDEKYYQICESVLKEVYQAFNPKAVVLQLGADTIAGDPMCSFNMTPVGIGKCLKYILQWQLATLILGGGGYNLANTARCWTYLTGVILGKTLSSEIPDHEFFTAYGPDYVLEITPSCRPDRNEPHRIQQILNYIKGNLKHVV

Histone deacetylase 2 [5] = target: T5, Histone deacetylase 2 (Homo sapiens, UniProt Q92769); test: Inhibition of human HDAC2 expressed in Sf9 cells using carboxyfluorescein (FAM)-labeled acetylated peptide substrate preincubated for 3 hrs by microfluidic capillary electrophoresis
[6] = target: T6, Protein deacetylase HDAC6 (Homo sapiens, UniProt Q9UBN7); test: Inhibition of HDAC6 (unknown origin) using carboxyfluorescein (FAM)-labeled acetylated peptide substrate by microfluidic capillary electrophoresis
T6 sequence (Q9UBN7 whole entry): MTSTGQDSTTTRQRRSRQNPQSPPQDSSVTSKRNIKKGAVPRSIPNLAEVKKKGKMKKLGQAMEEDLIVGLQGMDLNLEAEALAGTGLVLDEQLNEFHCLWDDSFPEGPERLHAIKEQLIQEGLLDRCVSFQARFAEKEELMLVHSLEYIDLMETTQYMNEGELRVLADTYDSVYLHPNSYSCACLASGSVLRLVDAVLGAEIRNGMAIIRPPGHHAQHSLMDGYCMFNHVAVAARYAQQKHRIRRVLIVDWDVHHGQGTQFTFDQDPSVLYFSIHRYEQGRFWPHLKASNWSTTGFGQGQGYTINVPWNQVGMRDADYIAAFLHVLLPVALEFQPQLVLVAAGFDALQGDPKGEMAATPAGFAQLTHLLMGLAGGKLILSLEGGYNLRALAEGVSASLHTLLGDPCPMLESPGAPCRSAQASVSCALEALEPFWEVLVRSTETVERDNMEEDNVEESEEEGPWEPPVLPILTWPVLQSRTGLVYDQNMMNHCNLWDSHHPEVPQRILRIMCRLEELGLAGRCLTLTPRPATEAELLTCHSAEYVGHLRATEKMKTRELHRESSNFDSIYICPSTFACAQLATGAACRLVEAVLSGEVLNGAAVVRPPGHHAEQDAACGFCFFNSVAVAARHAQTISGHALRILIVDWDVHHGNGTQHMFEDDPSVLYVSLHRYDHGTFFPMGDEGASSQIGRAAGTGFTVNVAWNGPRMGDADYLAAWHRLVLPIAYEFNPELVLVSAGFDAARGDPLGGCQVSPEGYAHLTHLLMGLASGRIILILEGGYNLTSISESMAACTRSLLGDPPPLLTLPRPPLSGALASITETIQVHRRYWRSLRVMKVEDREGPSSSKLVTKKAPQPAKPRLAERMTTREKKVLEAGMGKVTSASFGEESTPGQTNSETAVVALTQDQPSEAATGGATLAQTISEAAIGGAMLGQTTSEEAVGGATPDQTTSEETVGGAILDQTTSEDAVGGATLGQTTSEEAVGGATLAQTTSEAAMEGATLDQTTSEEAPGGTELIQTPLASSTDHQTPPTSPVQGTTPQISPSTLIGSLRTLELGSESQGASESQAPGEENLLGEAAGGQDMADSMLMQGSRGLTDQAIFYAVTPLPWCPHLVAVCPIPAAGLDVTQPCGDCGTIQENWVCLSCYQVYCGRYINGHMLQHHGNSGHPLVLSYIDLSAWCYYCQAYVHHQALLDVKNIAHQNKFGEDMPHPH

Histone deacetylase 9 [7] = target: T1, Histone deacetylase 9; test: Inhibition of human full length recombinant HDAC9 using p53 (379 to 382 residues) Ac-LGK(TFA)-AMC as substrate preincubated for 5 to 10 mins followed by substrate addition and measured after 2 hrs by fluorescence method
[8] = target: Histone deacetylase 3/Nuclear receptor corepressor 2 (HDAC3/NCoR2) (Homo sapiens, UniProt O15379); test: Inhibition of human full length recombinant HDAC3/ NcoR2 using p53 (379 to 382 residues) (RHKK(Ac)AMC) as substrate preincubated for 5 to 10 mins followed by substrate addition and measured after 2 hrs by fluorescence method; assay type: protein-complex assay
Histone deacetylase 8 [9] = target: T4, Histone deacetylase 8; test: Inhibition of human full length recombinant HDAC8 using p53 (379 to 382 residues) (RHK(Ac)K(Ac)AMC as substrate preincubated for 5 to 10 mins followed by substrate addition and measured after 2 hrs by fluorescence method
[10] = target: T7, Polyamine deacetylase HDAC10 (Homo sapiens, UniProt Q969S8); test: Inhibition of human full length recombinant HDAC10 using p53 (379 to 382 residues) (RHKK(Ac)AMC) as substrate preincubated for 5 to 10 mins followed by substrate addition and measured after 2 hrs by fluorescence method
T7 sequence (Q969S8 whole entry): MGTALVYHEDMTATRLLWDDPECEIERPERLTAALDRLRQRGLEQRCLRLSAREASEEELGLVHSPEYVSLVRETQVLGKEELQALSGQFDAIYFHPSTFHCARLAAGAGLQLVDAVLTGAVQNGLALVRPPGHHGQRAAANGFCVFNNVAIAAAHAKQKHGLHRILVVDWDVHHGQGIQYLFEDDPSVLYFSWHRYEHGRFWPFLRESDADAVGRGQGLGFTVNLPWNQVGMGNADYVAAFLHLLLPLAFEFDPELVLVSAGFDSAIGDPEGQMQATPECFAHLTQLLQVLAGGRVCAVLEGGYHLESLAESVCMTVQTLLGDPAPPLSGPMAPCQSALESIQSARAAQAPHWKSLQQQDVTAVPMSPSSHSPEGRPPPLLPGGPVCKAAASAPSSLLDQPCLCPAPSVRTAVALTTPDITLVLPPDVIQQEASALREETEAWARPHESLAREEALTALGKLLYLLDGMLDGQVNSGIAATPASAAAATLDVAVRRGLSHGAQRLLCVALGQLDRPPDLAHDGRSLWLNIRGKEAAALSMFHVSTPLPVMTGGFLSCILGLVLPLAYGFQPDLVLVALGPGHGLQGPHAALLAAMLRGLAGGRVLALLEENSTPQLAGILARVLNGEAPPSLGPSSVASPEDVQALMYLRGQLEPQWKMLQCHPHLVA

Histone deacetylase 7 [11] = target: T2, Histone deacetylase 7; test: Inhibition of human full length recombinant HDAC7 using p53 (379 to 382 residues) Ac-LGK(TFA)-AMC as substrate preincubated for 5 to 10 mins followed by substrate addition and measured after 2 hrs by fluorescence method
Histone deacetylase 5 [12] = target: T3, Histone deacetylase 5; test: Inhibition of human full length recombinant HDAC5 using p53 (379 to 382 residues) Ac-LGK(TFA)-AMC as substrate preincubated for 5 to 10 mins followed by substrate addition and measured after 2 hrs by fluorescence method
Histone deacetylase 2 [13] = target: T5, Histone deacetylase 2
Histone deacetylase 11 = target: T8, Histone deacetylase 11 (Homo sapiens, UniProt Q96DB2); test: Inhibition of human full length recombinant HDAC11 using p53 (379 to 382 residues) (RHKK(Ac)AMC) as substrate preincubated for 5 to 10 mins followed by substrate addition and measured after 2 hrs by fluorescence method
T8 sequence (Q96DB2 whole entry): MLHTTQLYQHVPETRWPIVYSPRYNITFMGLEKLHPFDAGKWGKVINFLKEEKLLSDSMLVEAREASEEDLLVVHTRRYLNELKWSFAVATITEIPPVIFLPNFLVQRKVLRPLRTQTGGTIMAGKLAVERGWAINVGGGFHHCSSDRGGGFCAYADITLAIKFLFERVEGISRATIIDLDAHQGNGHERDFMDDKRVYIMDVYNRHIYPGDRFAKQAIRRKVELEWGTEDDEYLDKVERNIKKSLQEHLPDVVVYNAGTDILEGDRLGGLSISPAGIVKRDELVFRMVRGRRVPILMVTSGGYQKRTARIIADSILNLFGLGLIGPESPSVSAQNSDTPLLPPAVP

Homo sapiens [14] = organism: Homo sapiens; test: Selectivity ratio of IC50 for human HDAC2 expressed in Sf9 cells to IC50 for HDAC6 (unknown origin)
Homo sapiens [15] = organism: Homo sapiens; test: Selectivity ratio of IC50 for recombinant human C-terminal His-tagged HDAC8 expressed in baculovirus infected sf9 cells to IC50 for HDAC6 (unknown origin)
Homo sapiens [16] = organism: Homo sapiens; test: Selectivity ratio of IC50 for human HDAC4 expressed in Sf9 cells to IC50 for HDAC6 (unknown origin)
Homo sapiens [17] = organism: Homo sapiens; test: Selectivity ratio of IC50 for human N-terminal GST-tagged HDAC7 (518 to end residues) expressed in baculovirus infected sf9 cells to IC50 for HDAC6 (unknown origin)
[18] = target: T6, Protein deacetylase HDAC6; test: Inhibition of HDAC6 (unknown origin) using acetyl-lysine tripeptide substrate as substrate preincubated for 24 hrs followed substrate addition and shaken for 5 secs and measured over 30 mins
Homo sapiens [19] = organism: Homo sapiens; test: Selectivity ratio of IC50 for human C-terminal His-tagged HDAC3 (1 to 428 residues)/human N-terminal GST-tagged NcoR2 (395 to 489 residues) expressed in sf9 cells to IC50 for HDAC6 (unknown origin)
Homo sapiens [20] = organism: Homo sapiens; test: Selectivity ratio of IC50 for C-terminal His-tagged human HDAC9 (604 to 1066 residues) expressed in baculovirus infected sf9 cells to IC50 for HDAC6 (unknown origin)
Homo sapiens [21] = organism: Homo sapiens; test: Selectivity ratio of IC50 for HDAC1 (unknown origin) to IC50 for HDAC6 (unknown origin)
Homo sapiens [22] = organism: Homo sapiens; test: Selectivity ratio of IC50 for human HDAC5 to IC50 for HDAC6 (unknown origin)

T3 sequence (Q9UQL6 whole entry): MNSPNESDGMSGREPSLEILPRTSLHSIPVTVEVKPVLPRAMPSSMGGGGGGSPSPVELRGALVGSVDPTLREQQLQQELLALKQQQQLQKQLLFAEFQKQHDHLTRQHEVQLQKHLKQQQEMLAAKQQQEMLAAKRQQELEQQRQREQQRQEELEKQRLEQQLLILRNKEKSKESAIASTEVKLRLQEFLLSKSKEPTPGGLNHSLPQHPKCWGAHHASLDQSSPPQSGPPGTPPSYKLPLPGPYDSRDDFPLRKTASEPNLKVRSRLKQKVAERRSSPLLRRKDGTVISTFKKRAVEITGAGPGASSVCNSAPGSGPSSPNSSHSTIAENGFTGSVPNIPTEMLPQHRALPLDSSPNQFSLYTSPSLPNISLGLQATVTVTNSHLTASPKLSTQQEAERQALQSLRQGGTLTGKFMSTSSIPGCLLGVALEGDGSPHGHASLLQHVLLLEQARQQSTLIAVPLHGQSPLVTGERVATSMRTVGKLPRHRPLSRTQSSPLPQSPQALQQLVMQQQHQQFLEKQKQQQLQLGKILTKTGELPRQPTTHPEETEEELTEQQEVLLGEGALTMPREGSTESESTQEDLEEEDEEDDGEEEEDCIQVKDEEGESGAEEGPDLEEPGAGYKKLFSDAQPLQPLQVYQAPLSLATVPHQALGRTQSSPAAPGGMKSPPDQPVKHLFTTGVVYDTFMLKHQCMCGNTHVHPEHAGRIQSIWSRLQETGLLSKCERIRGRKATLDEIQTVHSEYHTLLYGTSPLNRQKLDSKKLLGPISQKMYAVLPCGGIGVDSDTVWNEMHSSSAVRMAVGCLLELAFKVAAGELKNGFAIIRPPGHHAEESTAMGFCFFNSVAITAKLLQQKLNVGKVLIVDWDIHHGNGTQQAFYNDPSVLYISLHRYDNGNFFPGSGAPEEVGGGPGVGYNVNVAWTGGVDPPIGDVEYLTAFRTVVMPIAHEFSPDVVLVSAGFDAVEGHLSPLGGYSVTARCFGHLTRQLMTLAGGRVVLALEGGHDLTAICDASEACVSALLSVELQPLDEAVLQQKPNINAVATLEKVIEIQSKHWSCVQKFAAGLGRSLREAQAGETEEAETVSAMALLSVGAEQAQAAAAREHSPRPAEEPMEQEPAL
T1 sequence (Q9UKV0 whole entry, the tested form may be a part): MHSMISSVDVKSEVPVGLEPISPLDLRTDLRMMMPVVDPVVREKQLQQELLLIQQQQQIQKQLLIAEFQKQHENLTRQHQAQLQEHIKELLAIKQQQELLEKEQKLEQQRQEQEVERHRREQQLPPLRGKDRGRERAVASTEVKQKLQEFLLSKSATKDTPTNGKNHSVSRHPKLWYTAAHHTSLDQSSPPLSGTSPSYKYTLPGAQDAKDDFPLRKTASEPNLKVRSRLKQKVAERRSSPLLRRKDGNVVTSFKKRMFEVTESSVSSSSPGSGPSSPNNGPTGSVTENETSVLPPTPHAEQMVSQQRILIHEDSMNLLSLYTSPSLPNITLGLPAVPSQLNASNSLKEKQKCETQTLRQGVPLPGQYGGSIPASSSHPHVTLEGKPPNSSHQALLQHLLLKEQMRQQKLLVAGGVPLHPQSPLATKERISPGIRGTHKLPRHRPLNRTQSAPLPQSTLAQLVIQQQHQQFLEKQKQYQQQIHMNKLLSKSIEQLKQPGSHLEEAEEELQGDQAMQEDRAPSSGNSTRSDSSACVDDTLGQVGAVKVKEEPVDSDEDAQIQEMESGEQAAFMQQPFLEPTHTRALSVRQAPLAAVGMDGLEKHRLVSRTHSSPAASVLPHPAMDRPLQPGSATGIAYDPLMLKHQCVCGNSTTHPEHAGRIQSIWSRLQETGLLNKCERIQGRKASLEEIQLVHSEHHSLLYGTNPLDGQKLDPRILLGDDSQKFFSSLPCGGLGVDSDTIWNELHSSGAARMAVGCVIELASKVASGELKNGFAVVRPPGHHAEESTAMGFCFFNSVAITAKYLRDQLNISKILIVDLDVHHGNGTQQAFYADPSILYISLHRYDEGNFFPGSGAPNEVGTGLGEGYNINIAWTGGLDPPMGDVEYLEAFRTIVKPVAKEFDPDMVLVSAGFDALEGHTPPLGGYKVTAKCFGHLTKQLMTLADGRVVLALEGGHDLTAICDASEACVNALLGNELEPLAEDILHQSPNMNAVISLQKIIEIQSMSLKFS
T5 sequence (Q92769 whole entry): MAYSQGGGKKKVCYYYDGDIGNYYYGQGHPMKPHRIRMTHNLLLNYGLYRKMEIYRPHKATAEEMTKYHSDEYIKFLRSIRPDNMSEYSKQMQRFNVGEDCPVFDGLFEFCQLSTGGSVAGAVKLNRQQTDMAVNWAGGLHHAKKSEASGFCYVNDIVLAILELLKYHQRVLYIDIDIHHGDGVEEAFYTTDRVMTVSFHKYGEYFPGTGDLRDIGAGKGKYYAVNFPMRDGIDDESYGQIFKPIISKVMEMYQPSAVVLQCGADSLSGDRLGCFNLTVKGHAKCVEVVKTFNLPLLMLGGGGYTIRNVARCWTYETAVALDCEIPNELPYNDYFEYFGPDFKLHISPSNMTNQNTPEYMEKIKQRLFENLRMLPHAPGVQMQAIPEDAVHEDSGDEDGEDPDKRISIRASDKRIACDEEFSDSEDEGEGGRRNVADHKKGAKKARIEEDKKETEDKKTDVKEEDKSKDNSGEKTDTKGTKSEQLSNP
Sequence of Histone deacetylase 1 (Q13547 whole entry): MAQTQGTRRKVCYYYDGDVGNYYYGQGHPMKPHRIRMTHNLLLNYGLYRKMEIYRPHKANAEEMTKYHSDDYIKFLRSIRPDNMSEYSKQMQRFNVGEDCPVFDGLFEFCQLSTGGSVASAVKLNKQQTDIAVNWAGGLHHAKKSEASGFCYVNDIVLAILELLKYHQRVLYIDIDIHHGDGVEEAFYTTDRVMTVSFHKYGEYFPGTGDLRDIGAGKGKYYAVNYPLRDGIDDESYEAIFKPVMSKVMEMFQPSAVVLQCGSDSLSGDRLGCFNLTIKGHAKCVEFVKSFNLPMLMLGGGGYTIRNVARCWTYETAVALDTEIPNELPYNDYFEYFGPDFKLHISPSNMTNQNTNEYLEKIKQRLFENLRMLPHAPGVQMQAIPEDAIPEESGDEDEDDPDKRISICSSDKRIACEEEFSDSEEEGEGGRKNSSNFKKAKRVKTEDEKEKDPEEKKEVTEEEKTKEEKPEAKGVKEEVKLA
Sequence of Histone deacetylase 4 (P56524 whole entry, the tested form may be a part): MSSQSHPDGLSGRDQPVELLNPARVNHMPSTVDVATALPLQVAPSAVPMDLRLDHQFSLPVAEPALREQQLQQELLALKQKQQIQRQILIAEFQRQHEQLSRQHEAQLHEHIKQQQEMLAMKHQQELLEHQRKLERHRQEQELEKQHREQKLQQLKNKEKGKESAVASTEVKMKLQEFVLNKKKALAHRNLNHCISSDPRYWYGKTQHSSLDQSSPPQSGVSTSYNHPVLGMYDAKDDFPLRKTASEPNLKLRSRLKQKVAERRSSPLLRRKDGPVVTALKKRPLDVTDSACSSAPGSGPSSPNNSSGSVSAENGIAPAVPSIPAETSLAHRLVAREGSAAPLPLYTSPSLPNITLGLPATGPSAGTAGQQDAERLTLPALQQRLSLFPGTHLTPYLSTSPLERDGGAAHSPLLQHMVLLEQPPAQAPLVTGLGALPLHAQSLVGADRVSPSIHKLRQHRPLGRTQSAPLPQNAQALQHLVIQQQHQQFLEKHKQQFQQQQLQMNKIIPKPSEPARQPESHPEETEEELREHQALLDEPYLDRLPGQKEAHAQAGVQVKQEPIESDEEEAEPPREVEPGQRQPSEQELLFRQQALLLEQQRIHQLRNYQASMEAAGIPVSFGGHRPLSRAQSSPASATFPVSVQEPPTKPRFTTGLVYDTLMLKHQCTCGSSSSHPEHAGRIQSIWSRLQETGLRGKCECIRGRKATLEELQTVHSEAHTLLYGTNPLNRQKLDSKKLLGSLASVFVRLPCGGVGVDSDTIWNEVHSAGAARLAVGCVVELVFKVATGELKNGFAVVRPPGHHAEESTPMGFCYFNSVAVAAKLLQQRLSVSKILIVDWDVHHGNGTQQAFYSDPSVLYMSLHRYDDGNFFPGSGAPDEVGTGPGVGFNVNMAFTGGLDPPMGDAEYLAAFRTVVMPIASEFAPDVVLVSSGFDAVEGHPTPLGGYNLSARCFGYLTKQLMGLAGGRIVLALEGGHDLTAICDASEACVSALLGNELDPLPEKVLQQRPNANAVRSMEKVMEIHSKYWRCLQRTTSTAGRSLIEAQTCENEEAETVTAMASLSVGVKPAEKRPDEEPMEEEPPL

CC(=O)Nc1ccc(C(=O)Nc2ccc(F)cc2N)cc1
IC50 (Histone deacetylase 4): > 30 µM | IC50 (Histone deacetylase 9 [1]): > 30 µM | IC50 (Histone deacetylase 7 [2]): > 30 µM | IC50 (Histone deacetylase 1): 1 µM | IC50 (Histone deacetylase 5 [3]): > 30 µM | IC50 (Histone deacetylase 8 [4]): > 30 µM | IC50 (Histone deacetylase 2 [5]): 1 µM | IC50 [6]: > 30 µM

O=C(NO)c1ccc(CN2CCCc3cc(Cl)ccc32)cc1
IC50 (Histone deacetylase 9 [7]): 4 µM | IC50 [8]: 30 µM | IC50 (Histone deacetylase 8 [9]): 4 µM | IC50 [10]: 26 µM | IC50 (Histone deacetylase 7 [11]): 5 µM | IC50 (Histone deacetylase 5 [12]): 4 µM | IC50 (Histone deacetylase 2 [13]): 33 µM | IC50 (Histone deacetylase 11): 6 µM

O=C(NO)c1cnc(C2(c3ccccc3)CCC(F)(F)CC2)nc1
Ratio IC50 (Homo sapiens [14]): > 250 | Ratio IC50 (Homo sapiens [15]): > 250 | Ratio IC50 (Homo sapiens [16]): > 250 | Ratio IC50 (Homo sapiens [17]): > 250 | IC50 [18]: 0.003 µM | Ratio IC50 (Homo sapiens [19]): > 250 | Ratio IC50 (Homo sapiens [20]): > 250 | Ratio IC50 (Homo sapiens [21]): > 250 | Ratio IC50 (Homo sapiens [22]): > 250
